Series [1] has as its target T1, MMP-9 (Homo sapiens, UniProt P14780). Put plainly: Biomol MMP-9 colourimetric assay kit AK-410 (thiopeptolide substrate). Format: biochemical. Here is the method: (§1) Additional In Vitro Metalloproteinase Inhibition Assay
(§2) Compounds were screened using the following commercially available Biomol assay kits:
MMP-9 colourimetric assay kit—Catalogue number AK-410,
(§3) Which are available from Affiniti Research Products Ltd. (Palatine House, Matford Court, Exeter, EX2 8NL, UK).
(§4) (a) Test Compound Preparation.
(§5) Inhibitors were provided in powdered form, and stored at 4° C. For each inhibitor a 1 mM stock solution in DMSO was prepared, dispensed into 20 μl aliquots and these aliquots stored at −20° C. The stock solution was diluted to give 8 inhibitor concentrations (recommended: […], 5 μM, 500 nM, 50 nM, 5 nM, 500 pM, 50 pM and 5 pM). Dilutions were made in the kit assay buffer. A five-fold dilution of the inhibitor stocks is made on addition to the assay wells, therefore final concentration range is from 10 μM to 1 pM.
(§6) (b) Experimental Procedure.
(§7) Details are provided with the commercial kit, but can be summarised as follows:
(§8) Prepare test compound dilutions as above,
(§9) Add assay buffer to plate,
(§10) Add test compounds to plate
(§11) Prepare standard kit inhibitor NNGH (see kit for dilution factor)
(§12) Add NNGH to control inhibitor wells
(§13) Prepare MMP enzyme (see kit for dilution factor)
(§14) Incubate plate at 37° C. for ˜15 min
(§15) Prepare thiopeptolide substrate (see kit for dilution factor)
(§16) Count every 2 min for 1 hr, 37° C., 414 nm on a Labsystems iEMS plate reader.
Target sequence in this assay (P14780 107-444 limits assumed): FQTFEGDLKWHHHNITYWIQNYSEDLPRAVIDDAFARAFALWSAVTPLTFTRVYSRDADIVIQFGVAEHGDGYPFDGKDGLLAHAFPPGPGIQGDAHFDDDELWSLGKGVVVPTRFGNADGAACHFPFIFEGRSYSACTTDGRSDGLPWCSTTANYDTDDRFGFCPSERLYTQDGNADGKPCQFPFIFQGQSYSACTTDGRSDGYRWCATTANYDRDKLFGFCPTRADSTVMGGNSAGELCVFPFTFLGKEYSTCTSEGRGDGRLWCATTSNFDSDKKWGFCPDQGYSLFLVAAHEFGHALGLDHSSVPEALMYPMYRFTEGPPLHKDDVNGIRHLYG

In series [2] the target is MMP-2 (Homo sapiens, UniProt P08253). Put plainly: Biomol MMP-2 colourimetric assay kit AK-408 (thiopeptolide substrate). It is filed as biochemical. Here is the method: as §1, §2
MMP-2 colourimetric assay kit—Catalogue number AK-408,
as §3, §4, §5, §6, §7, §8, §9, §10, §11, §12, §13, §14, §15, §16

Series [3] addresses MMP-12 (Homo sapiens, UniProt P39900). Put plainly: Biomol MMP-12 colourimetric assay kit AK-402 (thiopeptolide substrate). It is filed as biochemical. As for the experimental part:
as §1, §2
MMP-12 colourimetric assay kit—Catalogue number AK-402,
as §3, §4, §5, §6, §7, §8, §9, §10, §11, §12, §13, §14, §15, §16

For series [4], the target named is T1, MMP-9. As to the kind of experiment: In vitro metalloproteinase inhibition assay, fluorogenic substrate (method of Huang et al.). Format: biochemical. Particulars: fluorogenic substrate 1 μM, MMP 1 nM, inhibitor 1000 pM-100 μM. The source says: In Vitro Metalloproteinase Inhibition Assay
Target sequence in this assay (P14780 94-707): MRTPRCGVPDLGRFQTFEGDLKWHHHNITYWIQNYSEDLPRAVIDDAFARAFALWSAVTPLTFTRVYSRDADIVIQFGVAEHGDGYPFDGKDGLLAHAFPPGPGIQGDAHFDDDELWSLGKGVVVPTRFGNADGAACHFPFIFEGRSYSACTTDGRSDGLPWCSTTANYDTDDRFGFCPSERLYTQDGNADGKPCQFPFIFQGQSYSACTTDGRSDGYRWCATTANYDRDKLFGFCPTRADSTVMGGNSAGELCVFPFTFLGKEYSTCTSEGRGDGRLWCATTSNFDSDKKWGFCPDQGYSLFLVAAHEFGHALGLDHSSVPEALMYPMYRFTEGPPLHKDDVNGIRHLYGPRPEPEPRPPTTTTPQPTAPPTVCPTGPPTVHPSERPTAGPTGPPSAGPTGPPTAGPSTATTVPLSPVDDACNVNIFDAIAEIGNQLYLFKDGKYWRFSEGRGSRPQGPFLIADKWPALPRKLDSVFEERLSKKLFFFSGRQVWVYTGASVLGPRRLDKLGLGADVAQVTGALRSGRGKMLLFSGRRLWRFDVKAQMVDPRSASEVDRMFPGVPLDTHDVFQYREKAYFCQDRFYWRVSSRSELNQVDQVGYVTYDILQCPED
Series [5] has as its target T2, MMP-2 (Homo sapiens, UniProt P08253).
T2 sequence (P08253 110-660): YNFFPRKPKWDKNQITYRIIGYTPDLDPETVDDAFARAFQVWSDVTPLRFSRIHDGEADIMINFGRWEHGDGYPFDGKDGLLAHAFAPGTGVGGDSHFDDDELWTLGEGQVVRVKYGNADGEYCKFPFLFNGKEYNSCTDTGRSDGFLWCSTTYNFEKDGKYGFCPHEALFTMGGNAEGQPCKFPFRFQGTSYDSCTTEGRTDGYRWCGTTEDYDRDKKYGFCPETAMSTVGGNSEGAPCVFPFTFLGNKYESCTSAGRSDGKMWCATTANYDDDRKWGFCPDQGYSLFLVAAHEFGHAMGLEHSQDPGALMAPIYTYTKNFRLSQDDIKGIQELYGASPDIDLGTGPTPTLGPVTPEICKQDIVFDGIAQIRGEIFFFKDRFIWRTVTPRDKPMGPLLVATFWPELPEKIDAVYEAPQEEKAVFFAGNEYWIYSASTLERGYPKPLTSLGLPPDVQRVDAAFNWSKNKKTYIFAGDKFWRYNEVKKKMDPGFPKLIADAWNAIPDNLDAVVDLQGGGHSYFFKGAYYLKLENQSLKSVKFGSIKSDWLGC
Particulars: read-out: MMP-2 IC50; fluorogenic substrate 1 μM, MMP 1 nM, inhibitor 1000 pM-100 μM.
Description: Thus, a constant concentration of the fluorogenic substrate (1 μM) and the respective MMPs (1 nM) were incubated with increasing amounts of the MMP-inhibitors (1000 pM-100 μM) to determine their IC50 values.

Structures are written as SMILES. Read-outs that look alike come from different tables or passages of the source.

Sequence of MMP-12 (P39900 106-268 limits assumed): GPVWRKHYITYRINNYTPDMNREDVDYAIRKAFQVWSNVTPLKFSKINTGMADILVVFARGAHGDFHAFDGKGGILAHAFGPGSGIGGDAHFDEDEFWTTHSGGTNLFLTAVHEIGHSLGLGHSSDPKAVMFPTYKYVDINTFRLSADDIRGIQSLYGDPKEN

Broadly, the Ki is a dissociation constant, usually derived from enzyme kinetics or from competition with a known ligand. Consider `O=C1NC(=O)C(Nc2ccc(I)cc2)(c2ccc(Oc3ccc(Br)cc3)cc2)C(=O)N1` [Compound 24, 5-[4-(4-Bromophenoxy)-phenyl]-5-(4-iodophenylamino)-pyrimidine-2,4,6-trione], for which the inhibition constant Ki stood at 20 nM in series [1] and 45 nM in series [2].
Take `O=C1NC(=O)C(c2ccc(Oc3ccc(Br)cc3)cc2)(N2CCN(C(=O)CSCCCF)CC2)C(=O)N1` [Compound 9]: the Ki amounted to 0.3 nM in series [1], 5 nM in series [2] and 11 nM in series [3].
As usually defined, the IC50 is the concentration at which inhibition is half-maximal. Regarding `O=C1NC(=O)C(c2ccc(Oc3ccc(Br)cc3)cc2)(N2CCN(CCO)CC2)C(=O)N1` [Compound 2, 5-[4-(4-bromo-phenoxy)phenyl]-5-[4-(2-hydroxyethyl)piperazin-1-yl]-pyrimidine-2,4,6-trione, reference compound], the IC50 stood at 4 nM in series [4] and 9 nM in series [5].
Taken in the same sequence, the figures for `O=C1NC(=O)C(c2ccc(Oc3ccc(Br)cc3)cc2)(N2CCN(c3ccc(F)cc3)CC2)C(=O)N1` [Compound 20, 5-[4-(4-Bromo-phenoxy)phenyl]-5-[4-(4-fluorophenyl)piperazin-1-yl]-pyrimidine-2,4,6-trione] were 19 nM and 12 nM.
Taken in the same sequence, the figures for `O=C1NC(=O)C(c2ccc(Oc3ccc(I)cc3)cc2)(N2CCN(CCO)CC2)C(=O)N1` [Compound 4, 5-[4-(2-Hydroxyethyl)piperazin-1-yl]-5-[4-(4-iodo-phenoxy)phenyl]-pyrimidine-2,4,6-trione] were 2 nM and 7 nM.
For orientation: melting point means the temperature of the solid-liquid transition. `C[Si](C)(C)c1ccc(N2CCN(C3(c4ccc(Oc5ccc(Br)cc5)cc4)C(=O)NC(=O)NC3=O)CC2)cc1` registered a melting point of 205 to 210 °C.
In the case of `O=C1NC(=O)C(c2ccc(Oc3ccc(Br)cc3)cc2)(N2CCN(CCCF)CC2)C(=O)N1` [Compound 7, 5-[4-(4-Bromophenoxy)phenyl]-5-[4-(3-fluoropropyl)-piperazin-1-yl)-pyrimidine-2,4,6-trione], the inhibition constant Ki in series [1] stood at 2 nM; in series [2], 11 nM.
As for `CC(=NO)C(C)(C)NCCC(CCNC(=O)CCCC(=O)NCCN1CCN(C2(c3ccc(Oc4ccc(Br)cc4)cc3)C(=O)NC(=O)NC2=O)CC1)CCNC(C)(C)C(C)=NO` (stereo not drawn) [Compound 17], the Ki came to 10 nM in series [1]; 29 nM in series [2]; 157 nM in series [3] (colourimetric kit, thiopeptolide substrate, 37° C., 414 nm, read-out: MMP-12 (Ki)).
Take `COc1ccc(Oc2ccc(C3(N4CCN(CCO)CC4)C(=O)NC(=O)NC3=O)cc2)cc1` [Compound 3, 5-[4-(2-hydroxyethyl)piperazin-1-yl]-5-[4 (4-methoxy-phenoxy)phenyl]-pyrimidine-2,4,6-trione, reference compound]: the values for the concentration for half-maximal inhibition (IC50) in series [4] and in series [5] were 6 nM and 9 nM, respectively.
On to `CC(=NO)C(C)(C)NCCC(CCNC(=O)CCN1CCN(C2(c3ccc(Oc4ccc(Br)cc4)cc3)C(=O)NC(=O)NC2=O)CC1)CCNC(C)(C)C(C)=NO` (stereo not drawn) [Compound 16, 3-(4-{5-[4-(4-Bromophenoxy)-phenyl]-2,4,6-trioxohexahydropyrmidin-5-yl}-piperazin-1-yl)N-{5-(2-hydroxylimino-1,1-dimethylpropylamino)-3-[2-(2-hydroxylamino-1,1-dimethylpropylamino)-ethyl]-pentyl}-propionamide], for which the inhibition constant (Ki) in series [1] was determined as 3 nM; in series [2] it was 14 nM.

The values above are taken from US20060120956A1, “Imaging agents comprising barbituric acid derivatives” (priority 2002, published 2006).
